Data on 14 compounds can be found in PubChem BioAssay (NCI).

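Briefly, cells in 96-well plates were exposed to five compound concentrations for 48 h, and endpoints were estimated by linear interpolation. GI50: concentration for 50% inhibition of growth. Definition used: TGI = concentration required for complete inhibition of growth.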

Some test systems named below: A549 NSCLC; SN12C renal; SK-MEL-5 melanoma; TK-10 renal; HCC-2998 colon; HOP-62 NSCLC; HT29 colon; UO-31 renal; HL-60(TB) leukemia.
Holding throughout (test): NCI-60 cell line screen, 48 h

As to `Nc1nc(=S)[nH]c(C(=O)Nc2ccc(Cl)c(Cl)c2)c1-c1ccc(Cl)cc1`, the TGI in the experiment with A549 NSCLC, in the experiment on SN12C renal, in the experiment with SK-MEL-5 melanoma, in the experiment on TK-10 renal, with HCC-2998 colon and in the experiment on HOP-62 NSCLC was over 100 µM throughout. The TGI with HT29 colon, with UO-31 renal and with HL-60(TB) leukemia was over 100 µM each time.
Consider `COc1cc(C(=O)C/C(CCC(=O)Nc2ccc(Cl)cc2C)=N/NC(=O)C(N)=O)ccc1O`, for which the TGI in the experiment with A549 NSCLC, in the experiment with SN12C renal, in the experiment on SK-MEL-5 melanoma, in the experiment with TK-10 renal, in the experiment on HCC-2998 colon and with HOP-62 NSCLC was over 100 µM throughout. Moreover, the TGI in the experiment on HT29 colon, with UO-31 renal and with HL-60(TB) leukemia was over 100 µM each time.
As for `COC1OC(C)C(O)CC1OS(=O)(=O)c1ccc(C)cc1` (stereo not drawn), the TGI in the experiment with A549 NSCLC, with SN12C renal, in the experiment with SK-MEL-5 melanoma, in the experiment on TK-10 renal, with HT29 colon and in the experiment with UO-31 renal was over 100 µM each time. Moreover, the TGI with HL-60(TB) leukemia is over 100 µM.
As for `C1CCN(C2OC3C(COC3N3CCCCC3)OC2OC2CCO[C@@H]2N2CCCCC2)CC1` (stereo partly drawn), the TGI in the experiment on A549 NSCLC, with SN12C renal, with SK-MEL-5 melanoma, in the experiment on TK-10 renal, in the experiment with HCC-2998 colon and in the experiment on HOP-62 NSCLC was over 100 µM throughout. The values for the TGI with HT29 colon, in the experiment with UO-31 renal and in the experiment on HL-60(TB) leukemia were over 100 µM, over 100 µM and 67.8 µM, respectively.
Turning to `O=C(O)CC12C3C4C5C3C1C5C42` (stereo not drawn), the TGI in the experiment with A549 NSCLC, with SN12C renal, in the experiment on SK-MEL-5 melanoma, in the experiment on TK-10 renal, in the experiment with HCC-2998 colon and in the experiment with HOP-62 NSCLC was over 100 µM in each case. Moreover, the TGI in the experiment with HT29 colon, with UO-31 renal and with HL-60(TB) leukemia was over 100 µM in each case.
On to `CCc1nc(N)nc(C(=O)NCCNC(=O)c2nc(N)nc(CC)c2C)c1C`, for which the TGI in the experiment on A549 NSCLC, in the experiment with SN12C renal, with SK-MEL-5 melanoma, with TK-10 renal, with HCC-2998 colon and in the experiment on HOP-62 NSCLC was over 100 µM each time. Besides, the TGI in the experiment with HT29 colon, in the experiment on UO-31 renal and in the experiment with HL-60(TB) leukemia was over 100 µM throughout.
For the compound `Cc1ccc(/C=C/C(=O)c2sc(-c3cccnc3)nc2C)cc1`, the TGI with A549 NSCLC, with SN12C renal, in the experiment with SK-MEL-5 melanoma, in the experiment with TK-10 renal, with HCC-2998 colon and with HOP-62 NSCLC was over 100 µM each time. Also, the TGI in the experiment on HT29 colon, in the experiment on UO-31 renal and in the experiment on HL-60(TB) leukemia was over 100 µM in each case.
As for `O=C1NC2CCC(C2)C1c1ccccc1` (stereo not drawn), the TGI in the experiment with A549 NSCLC, in the experiment on SN12C renal, in the experiment with SK-MEL-5 melanoma, with TK-10 renal, in the experiment on HCC-2998 colon and in the experiment on HT29 colon was over 100 µM throughout. Further, the TGI in the experiment with UO-31 renal and in the experiment with HL-60(TB) leukemia was over 100 µM each time.
Consider `CCC[CH2][Sn]([CH2]CCC)([O]C(=O)C(N)CSC)[O]C(=O)C(N)CSC` (stereo not drawn), for which the GI50 with A549 NSCLC was 27.7 µM; with SN12C renal, 8.82 µM; in the experiment with SK-MEL-5 melanoma it was 11.6 µM; with TK-10 renal it was 9.03 µM; in the experiment with HCC-2998 colon, 13.1 µM; with HT29 colon it was 17.2 µM. Besides, the GI50 with UO-31 renal is 14.3 µM. In addition, the TGI in the experiment on A549 NSCLC was over 79.7 µM; in the experiment on SN12C renal it was 23.4 µM; in the experiment on SK-MEL-5 melanoma, 25 µM; in the experiment on TK-10 renal, 21.5 µM; in the experiment with HCC-2998 colon it was 30.5 µM; with HT29 colon, 44.7 µM. Also, in the experiment with UO-31 renal, the TGI is 27.4 µM.
For the compound `CC(=O)/C(=C\C1=CCCO1)C(=O)Nc1ccccc1C`, the TGI with A549 NSCLC, with SN12C renal, in the experiment on SK-MEL-5 melanoma, in the experiment with TK-10 renal, with HCC-2998 colon and in the experiment on HOP-62 NSCLC was over 100 µM each time. Moreover, the TGI with HT29 colon, in the experiment with UO-31 renal and in the experiment on HL-60(TB) leukemia was over 100 µM in each case.
Take `COC(=O)C12CC3CC(C1)CC(C(=O)OC)(C3)C2`: the TGI with A549 NSCLC, in the experiment on SN12C renal, in the experiment on SK-MEL-5 melanoma, in the experiment on TK-10 renal, in the experiment on HCC-2998 colon and in the experiment with HOP-62 NSCLC was over 100 µM throughout. Also, the TGI with HT29 colon, in the experiment with UO-31 renal and with HL-60(TB) leukemia was over 100 µM in each case.
On to `CC(=O)Nc1c(C)ccc2c1C(=O)c1ccccc1C2=O`, for which the TGI in the experiment with A549 NSCLC, in the experiment on SN12C renal, in the experiment with SK-MEL-5 melanoma, in the experiment on TK-10 renal, in the experiment with HCC-2998 colon and with HOP-62 NSCLC was over 100 µM in each case. Also, the TGI in the experiment with HT29 colon, with UO-31 renal and in the experiment with HL-60(TB) leukemia was over 100 µM each time.
Turning to `CC[O-].CC[O-].O=C1C(c2ccccc2)=C([O-])c2ccccc21.O=C1C(c2ccccc2)=C([O-])c2ccccc21.[Ti+4]`, the GI50 with A549 NSCLC, with SN12C renal, in the experiment with SK-MEL-5 melanoma, with HCC-2998 colon, in the experiment on HOP-62 NSCLC and with HT29 colon was over 100 µM in each case. In addition, in the experiment with HL-60(TB) leukemia, the GI50 is over 100 µM. Further, the TGI in the experiment on A549 NSCLC, with SN12C renal, with SK-MEL-5 melanoma, in the experiment on HCC-2998 colon, in the experiment on HOP-62 NSCLC and in the experiment on HT29 colon was over 100 µM throughout. Besides, the TGI in the experiment on HL-60(TB) leukemia is over 100 µM.
As for `CCOC(=O)NC(=O)c1cn(CCCOC(=O)CCCCCCCCCCC(=O)OCCCn2cc(C(=O)NC(=O)OCC)c(=O)n(C)c2=O)c(=O)n(C)c1=O`, the TGI in the experiment with A549 NSCLC, in the experiment with SN12C renal, with SK-MEL-5 melanoma, in the experiment on TK-10 renal, with HCC-2998 colon and in the experiment on HOP-62 NSCLC was over 100 µM in each case. Moreover, the TGI in the experiment with HT29 colon, in the experiment on UO-31 renal and in the experiment with HL-60(TB) leukemia was over 100 µM each time.
